Test [1] concerns the target T1, recombinant feline FP receptor (Felis catus, UniProt A0ABI7XJ69). Description: Total inositol phosphate accumulation, HEK-293 cells with recombinant feline FP receptor. Particulars: read-out: E.C.50, total inositol phosphate accumulation. It counts as cell-based, cat. The method, then:
Ten days after transfection, hygromycin B resistant clones were individually selected and transferred to a separate well on a 24 well plate. At confluence each clone was transferred to one well of a 6 well plate, and then expanded in a 10 cm dish. Cells were maintained under continuous hygromycin selection until use. The stable cat FP receptor transfectants were similarly prepared using […]. Again cells were grown to 50-60% confluency on 10 cm plates and the plasmid pCEP4, incorporating cDNA inserts for the feline FP receptor, was transfected using lipofectin. Hygromycin B selection was started 48 hr post-transfection. Eight days after transfection, hygromycin B resistant clones were selected and transferred to 24 well plates. Ca^2+ signaling studies on recombinant cat and human FP receptors were performed in an identical manner to that described for the CRL 1497 cell studies.
Receptor-mediated phosphoinositide (PI) hydrolysis was determined by measuring the accumulation of total inositol phosphates (IP) in cells preincubated with ^3H-myoinositol. Stable cell lines of HEK 293 cells expressing human or cat FP receptors were plated in 10 cm dishes (10^6 cells per dish in DMEM with 10% FBS). […] The eluate was mixed with 10 ml Aquasol scintillation fluid (Packard Instrument Co.) and total [^3H] inositol phosphates was determined by a liquid scintillation counter.

Test [2] deals with T2, human FP receptor (Homo sapiens, UniProt P43088). Description: Total inositol phosphate accumulation, HEK-293 cells with recombinant human FP receptor. Particulars: for % maximal total inositol phosphate accumulation mean χ ± SEM: reference 17-phenyl PGF2α 10^−6 M. More on the design: expressed in transfected cells. It counts as cell-based. The method, then:
HEK-293 cells were grown in DMEM with 10% fetal bovine serum (FBS), 250 μg ml^−1 G418 (Life Technologies) and 200 μg ml^−1 gentamicin or penicillin/streptomycin. […] For transfection, the cells were grown to 50-60% confluency on 10 cm plates. The plasmid pCEP4 incorporating cDNA inserts for the human FP receptor (20 μg) was added to 500 μl of 250 mM CaCl2. HEPES buffered saline×2 (2×HBSS, 280 mM NaCl, 20 mM HEPES acid, 1.5 mM Na2 HPO4, pH 7.05-7.12) was then added dropwise to a […], with continuous vortexing at room temperature. After 30 min, 9 ml DMEM were added to the mixture. The DNA/DMEM/calcium phosphate mixture was then added to the cells, which had been previously rinsed with 10 ml phosphate buffered saline (PBS). The cells were then incubated for 5 h. at 37° C. in humidified 95% air/5% CO2. The calcium phosphate solution was then removed and the cells were treated with 10% glycerol in DMEM for 2 min. The glycerol solution was then replaced by DMEM with 10% fetal bovine serum (FBS). The cells were incubated overnight and the medium was replaced by DMEM/10% FBS containing 250 μg ml^−1 G418 and penicillin/streptomycin. The following day hygromycin B was added to a final concentration of 200 μg ml^−1.
Receptor-mediated phosphoinositide (PI) hydrolysis was determined by measuring the accumulation of total inositol phosphates (IP) in cells preincubated with ^3H-myoinositol. Stable cell lines of HEK 293 cells expressing human or cat FP receptors were plated in 10 cm dishes (10^6 cells per dish in DMEM with 10% FBS). The following day, the cells were incubated with 18 μCi myo-[2 ^3H] inositol (Amersham; […]) in 6 ml of DMEM with 10% FBS for 24 hours at 37° C. The cells were then rinsed twice with phosphate buffered saline (PBS), incubated for 5 min with 1 ml of trypsin-EDTA, and suspended in 10 ml DMEM containing 25 mM HEPES buffer. Cells were pelleted at 1000 rpm and resuspended in DMEM/25 mM HEPES containing 10 mM LiCl for 10 minutes. Aliquots of 200 μl cell suspension were incubated with 50 μl drug for 30 minutes at 37° C. (duplicate determination), and agonist stimulation was terminated with a 750 μl mixture of chloroform:methanol:4N HCl (100:200:2), followed by addition of 250 μl of chloroform and 0.5 N HCl for extraction of inositol phosphates. A 750 μl volume of the aqueous layer was loaded on columns packed with 0.5 ml of Dowex AG 1-X8 anion-exchange resin (formate form, 100-200 mesh; BioRad) to separate radiolabeled components. The elution procedure consisted of three 3 ml washes with 5 mM inositol, then two elutions with 750 μl of 1.3 M ammonium formate with 0.1 M formic acid. The eluate was mixed with 10 ml Aquasol scintillation fluid (Packard Instrument Co.) and total [^3H] inositol phosphates was determined by a liquid scintillation counter.

In test [3] the target is T2, human FP receptor. Description: Radioligand binding competition vs 3H-17-phenyl PGF2α, recombinant human FP receptor. More on the design: expressed in transfected cells. Particulars: for % specific binding mean χ ± SEM: vs 5nM 3H-17-phenyl PGF2α, n = 3. The method, then: (§1) Plasma membrane preparations of HEK 293 cells stably transfected with the human or feline FP receptor were obtained as follows. Cells washed with TME buffer were scraped from the bottom of the flasks and homogenized for 30 sec using a Brinkman PT 10/35 polytron. TME buffer was added as necessary to achieve a 40 ml volume in the centrifuge tubes. TME is comprised of 100 mM TRIS base, 20 mM Mg Cl2, 2 m EDTA; physiological pH is achieved by adding 10 N HCl. The cell homogenate was centrifuged at 19,000 rpm for 20 min at 4-6° C. using a Beckman Ti-60 rotor. The pellet was then resuspended in TME buffer to provide a final protein concentration of 1 mg/ml, as determined by Biorad assay. Radioligand binding assays were performed in a 200 μl volume.
Incubations were for 60 min at 25° C. and were terminated by the addition of 4 ml of ice-cold 50 mM TRIS-HCl followed by rapid filtration through Whatman GF/B filters and three additional 4 ml washes in a cell harvester (Brandel).

Test [4] has as its target T1, recombinant feline FP receptor. Nature of the test: Radioligand binding competition vs 3H-17-phenyl PGF2α, recombinant feline FP receptor. More on the design: species or system cat. How it is done:
as §1, with “TME is comprised of 100 mM TRIS base, 20 mM Mg Cl2, 2 m EDTA; physiological pH is achieved by adding 10 N HCl.” left out, “[…] Incubations” for “Radioligand binding assays”, “for 60 min at 25° C. and were terminated by the addition of 4 ml of ice-cold 50 mM TRIS-HCl followed by rapid filtration through Whatman GF/B filters and three additional 4 ml washes” for “performed”, “cell harvester (Brandel).” for “200 μl volume.”

The structures appear in SMILES notation. pEC50, pIC50: −log10 of the molar value.

T2 sequence (P43088 whole entry): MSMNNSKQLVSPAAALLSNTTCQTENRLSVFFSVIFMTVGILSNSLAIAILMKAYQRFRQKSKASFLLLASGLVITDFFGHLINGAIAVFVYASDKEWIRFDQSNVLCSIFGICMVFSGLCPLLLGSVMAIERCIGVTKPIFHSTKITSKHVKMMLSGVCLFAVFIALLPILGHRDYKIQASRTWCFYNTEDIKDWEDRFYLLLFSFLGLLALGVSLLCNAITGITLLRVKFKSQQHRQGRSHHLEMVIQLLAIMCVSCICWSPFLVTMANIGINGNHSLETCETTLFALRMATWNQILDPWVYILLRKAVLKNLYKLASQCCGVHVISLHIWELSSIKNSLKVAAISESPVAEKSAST
T1 sequence (A0ABI7XJ69 entry or part of it): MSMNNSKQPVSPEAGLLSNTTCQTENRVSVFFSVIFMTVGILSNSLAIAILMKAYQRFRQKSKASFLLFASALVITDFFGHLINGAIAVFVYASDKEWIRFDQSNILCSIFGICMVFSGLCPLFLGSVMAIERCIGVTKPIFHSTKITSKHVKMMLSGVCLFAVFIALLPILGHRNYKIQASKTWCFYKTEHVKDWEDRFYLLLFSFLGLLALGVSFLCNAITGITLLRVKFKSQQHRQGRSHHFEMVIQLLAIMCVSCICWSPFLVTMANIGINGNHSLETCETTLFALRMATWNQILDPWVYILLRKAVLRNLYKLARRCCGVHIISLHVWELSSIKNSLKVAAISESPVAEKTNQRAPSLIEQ

With `O=C(O)CCC/C=C\C[C@@H]1[C@@H](/C=C/[C@@H](O)CCc2ccccc2)[C@H](O)C[C@@H]1O` [17-phenyl PGF2α, 17-phenyl prostaglandin F2α, reference compound], the pEC50 in test [1] is 8.05; in test [2] (HEK-293 cells, recombinant human FP receptor, read-out: E.C.50, total inositol phosphate accumulation), 8.10. Moreover, the “% maximal total inositol phosphate accumulation mean χ ± SEM” value worked out at 100 ± 1.3% in test [2] (10^−6 M), 92.3 ± 0.9% in test [2] (10^−7 M), 57.8 ± 2.0% in test [2] (10^−8 M) and 14.7 ± 3.3% in test [2] (10^−9 M). The “% specific binding mean χ ± SEM” value in test [3] (10^−5 M) came to 0 ± 0%; in test [3] (10^−6 M), 1.7 ± 1.7%; in test [3] (10^−7 M), 5.3 ± 1.5%; in test [3] (10^−8 M), 24.0 ± 1.2%; in test [3] (10^−9 M), 65.0 ± 1.0%; in test [3] (10^−10 M) it was 98 ± 1.1%. The pIC50 in test [3] (vs 5 nM 3H-17-phenyl PGF2α, human FP receptor, read-out: I.C.50, radioligand binding) is 8.64; in test [4] (vs 5 nM 3H-17-phenyl PGF2α, feline FP receptor, read-out: inhibitory concentration50 (I.C.50), radioligand binding) it was 7.36. Moreover, the “affinity for the feline receptor” value in test [4] (radioligand binding) was “high affinity”.

The record behind these values is patent publication US6395787B1, “Ocular hypotensive lipids” (Allergan Sales, Inc., priority 2000, dated 2002).
